# Source: article PMC8880132 (Molecules, 2022)
# Where two headings read alike, the source gives them in different places.
# How the values were obtained:
# [1] = Pharmacokinetic drug-drug interaction study in rats after oral administration; assay type: in vivo, SD (Sprague-Dawley) rats; conditions: for Cmax / Tmax / half-life / AUC(0-inf) / AUC(0-t): male, Sprague-Dawley, rat, plasma, po; for Cmax / Tmax / half-life / AUC(0-inf) / AUC(0-t) / CLz / Vz: rat plasma; for Tmax: median (range); for half-life: read-out: t1/2z (converted)
# Method: SPF (specific pathogen free)-grade male SD (Sprague-Dawley) rats (weight: 230 ± 10 g) were purchased from Beijing Weitong Lihua Experimental Animal Technology Co. Ltd. (Beijing, China). Before starting the experiment, the rats were given sufficient food and water and kept under suitable conditions for one week. Suitable conditions included suitable temperature (23–27 °C), suitable humidity (50 ± 10%), and 12-h light–12-h dark diurnal cycle. All animals were fasted for 12 h before the start of the experiment, but they were allowed to drink water freely. All the animal experimental protocols were conducted in accordance with the UK Animals (Scientific Procedures) Act 1986 and under the guideline approved by the Ethics Committee of Hebei General Hospital (Shijiazhuang, China; No. 2021131).
# Twenty-four healthy rats were randomly and equally divided into four groups (six animals in each group). […] Approximately 0.3 mL of blood was collected from the orbital venous plexus in a heparinized centrifuge tube from each rat at 0.25, 0.5, 1, 2, 3, 4, 6, 8, 10, 12, 24, 48, 72, and 96 h after administration. […] The blood samples were collected from each rat at 0.17, 0.33, 0.5, 0.75, 1, 2, 3, 4, 6, 8, 10, 12, 24, 48, and 72 h after administration. Blood samples were centrifuged at 3500 rpm for 10 min, and the plasma samples (supernatant) were harvested and stored at −80 °C.
# The main pharmacokinetic parameters are presented as mean ± standard deviation and statistically analyzed using SPSS 25.0 software package (SPSS Inc., Chicago, IL, USA). A p-value of <0.05 was considered statistically significant.
# [2] = system: breast cancer resistance protein (BCRP); conditions: cited from earlier work
# [3] = cited from earlier work
# P-glycoprotein (P-gp) = conditions: cited from earlier work
# [4] = Stability of LEN and TEL in rat plasma under various storage conditions; assay type: in vitro ADME; conditions: for Stability, measured concentration Mean ± SD / Stability, Accuracy (RE%) vs nominal concentration: rat plasma; for Stability, measured concentration Mean ± SD: n = 6
# Method: QC samples with six replicates of each concentration were used to assess the stability of the samples under different processing and storage conditions. […] The long-term stability was carried out by freezing at −80 °C for 30 days, and the freeze–thaw stability was verified by repeatedly freezing and thawing three times.
# [5] = cited from earlier work; remark: listed apart in the source
# [6] = system: multidrug resistance-associated protein 2 (MRP2); conditions: in vitro studies; cited from earlier work
# [7] = 1.2 mg/kg, LEN 1.2 mg/kg oral, alone
# [8] = 1.2 mg/kg, LEN 1.2 mg/kg oral, with TEL (4 mg/kg)
# [9] = LEN 1.2 mg/kg oral, with TEL (4 mg/kg)
# [10] = autosampler for 24 h, high QC (800 ng/mL LEN, 400 ng/mL TEL)
# [11] = autosampler for 24 h, low QC (0.5 ng/mL LEN, 0.25 ng/mL TEL)
# [12] = freeze–thaw three times, high QC (800 ng/mL LEN, 400 ng/mL TEL)
# [13] = freeze–thaw three times, low QC (0.5 ng/mL LEN, 0.25 ng/mL TEL)
# [14] = freeze–thaw three times, medium QC (150 ng/mL LEN, 75 ng/mL TEL)
# [15] = room temperature for 8 h, high QC (800 ng/mL LEN, 400 ng/mL TEL)
# [16] = room temperature for 8 h, low QC (0.5 ng/mL LEN, 0.25 ng/mL TEL)
# [17] = room temperature for 8 h, medium QC (150 ng/mL LEN, 75 ng/mL TEL)
# [18] = −80 °C for 30 days, high QC (800 ng/mL LEN, 400 ng/mL TEL)
# [19] = −80 °C for 30 days, low QC (0.5 ng/mL LEN, 0.25 ng/mL TEL)
# [20] = −80 °C for 30 days, medium QC (150 ng/mL LEN, 75 ng/mL TEL)
# [21] = TEL 4 mg/kg with LEN 1.2 mg/kg vs TEL alone, rats, oral
# [22] = 4 mg/kg, TEL 4 mg/kg oral, alone
# [23] = 4 mg/kg, TEL 4 mg/kg oral, with LEN (1.2 mg/kg)
# [24] = autosampler for 24 h, medium QC (150 ng/mL LEN, 75 ng/mL TEL)
structure (smiles),measurement,setting,value
"COc1cc2nccc(Oc3ccc(NC(=O)NC4CC4)c(Cl)c3)c2cc1C(N)=O [LEN, Lenvatinib]",Cmax,[1]; [7],498 ± 107 ng/mL
same,Tmax,[1]; [7],2.5 h
same,half-life,[1]; [7],8.75 ± 2.55 h
same,AUC(0-inf),[1]; [8],5860 ± 1350 ng·h/mL
same,AUC(0-t),[1]; [8],5860 ± 1350 ng·h/mL
same,Cmax,[1]; [8],644 ± 211 ng/mL
same,half-life,[1]; [8],9.32 ± 4.69 h
same,CLz,"[1]; LEN 1.2 mg/kg oral, alone",3.5 ± 0.33 mL/min/kg
same,Vz,"[1]; LEN 1.2 mg/kg oral, alone",2.69 ± 0.79 L/kg
same,CLz,[1]; [9],3.67 ± 0.83 mL/min/kg
same,Vz,[1]; [9],2.92 ± 1.60 L/kg
same,BCRP interaction,[2],substrate
same,water solubility,[3],poor water solubility
same,P-gp interaction,P-glycoprotein (P-gp),substrate
same,"Stability, measured concentration Mean ± SD",[4]; [10],835.67 ± 34.60 ng/mL
same,"Stability, measured concentration Mean ± SD",[4]; [11],0.48 ± 0.03 ng/mL
same,"Stability, measured concentration Mean ± SD",[4]; [12],787.50 ± 40.13 ng/mL
same,"Stability, measured concentration Mean ± SD",[4]; [13],0.48 ± 0.05 ng/mL
same,"Stability, measured concentration Mean ± SD",[4]; [14],150.17 ± 14.85 ng/mL
same,"Stability, measured concentration Mean ± SD",[4]; [15],751.50 ± 19.74 ng/mL
same,"Stability, measured concentration Mean ± SD",[4]; [16],0.52 ± 0.03 ng/mL
same,"Stability, measured concentration Mean ± SD",[4]; [17],149.33 ± 11.15 ng/mL
same,"Stability, measured concentration Mean ± SD",[4]; [18],808.00 ± 59.16 ng/mL
same,"Stability, measured concentration Mean ± SD",[4]; [19],0.53 ± 0.05 ng/mL
same,"Stability, measured concentration Mean ± SD",[4]; [20],154.00 ± 4.77 ng/mL
"CCCc1nc2c(C)cc(-c3nc4ccccc4n3C)cc2n1Cc1ccc(-c2ccccc2C(=O)O)cc1 [TEL, Telmisartan]",half-life,[5],24 h
same,AUC0–72h reduced by,[1]; [21],44.9%
same,AUC0–∞ reduced by,[1]; [21],41.3%
same,Cmax reduced by,[1]; [21],42.2%
same,Vz higher by,[1]; [21],97.1%
same,increase in CL,[1]; [21],69%
same,AUC(0-inf),[1]; [22],4180 ± 1040 ng·h/mL
same,AUC(0-t),[1]; [22],4150 ± 1040 ng·h/mL
same,Cmax,[1]; [22],171 ± 38 ng/mL
same,Tmax,[1]; [22],8 h
same,half-life,[1]; [22],9.36 ± 2.09 h
same,AUC(0-inf),[1]; [23],2460 ± 544 ng·h/mL
same,AUC(0-t),[1]; [23],2280 ± 322 ng·h/mL
same,Cmax,[1]; [23],99 ± 19.3 ng/mL
same,Tmax,[1]; [23],11 h
same,half-life,[1]; [23],12.4 ± 12.7 h
same,CLz,"[1]; TEL 4 mg/kg oral, alone",16.7 ± 3.5 mL/min/kg
same,CLz,"[1]; TEL 4 mg/kg oral, with LEN (1.2 mg/kg)",28.2 ± 5.83 mL/min/kg
same,BCRP interaction,[2]; in vitro studies,substrate and inhibitor
same,MRP2 interaction,[6],substrate and inhibitor
same,water solubility,[3]; solubility is related to PH,poorly water-soluble
same,P-gp interaction,P-glycoprotein (P-gp); in vitro studies,substrate and inhibitor
same,"Stability, Accuracy (RE%) vs nominal concentration",[4]; [10],−0.38%
same,"Stability, measured concentration Mean ± SD",[4]; [10],398.50 ± 22.76 ng/mL
same,"Stability, Accuracy (RE%) vs nominal concentration",[4]; [11],−4.33%
same,"Stability, measured concentration Mean ± SD",[4]; [11],0.24 ± 0.02 ng/mL
same,"Stability, Accuracy (RE%) vs nominal concentration",[4]; [24],−1.76%
same,"Stability, measured concentration Mean ± SD",[4]; [24],73.68 ± 1.59 ng/mL
same,"Stability, Accuracy (RE%) vs nominal concentration",[4]; [12],−2.17%
same,"Stability, measured concentration Mean ± SD",[4]; [12],391.33 ± 25.73 ng/mL
same,"Stability, Accuracy (RE%) vs nominal concentration",[4]; [13],−0.47%
same,"Stability, measured concentration Mean ± SD",[4]; [13],0.25 ± 0.01 ng/mL
same,"Stability, Accuracy (RE%) vs nominal concentration",[4]; [14],−3.53%
same,"Stability, measured concentration Mean ± SD",[4]; [14],72.35 ± 2.51 ng/mL
same,"Stability, Accuracy (RE%) vs nominal concentration",[4]; [15],−7.58%
same,"Stability, measured concentration Mean ± SD",[4]; [15],369.67 ± 6.98 ng/mL
same,"Stability, Accuracy (RE%) vs nominal concentration",[4]; [16],−3.53%
same,"Stability, measured concentration Mean ± SD",[4]; [16],0.24 ± 0.01 ng/mL
same,"Stability, Accuracy (RE%) vs nominal concentration",[4]; [17],−2.36%
same,"Stability, measured concentration Mean ± SD",[4]; [17],73.23 ± 5.40 ng/mL
same,"Stability, Accuracy (RE%) vs nominal concentration",[4]; [18],0.38%
same,"Stability, measured concentration Mean ± SD",[4]; [18],401.50 ± 27.46 ng/mL
same,"Stability, Accuracy (RE%) vs nominal concentration",[4]; [19],1.80%
same,"Stability, measured concentration Mean ± SD",[4]; [19],0.25 ± 0.01 ng/mL
same,"Stability, Accuracy (RE%) vs nominal concentration",[4]; [20],−0.36%
same,"Stability, measured concentration Mean ± SD",[4]; [20],74.73 ± 1.64 ng/mL
same,stability of plasma samples,"[4]; room temperature 8 h, autosampler 24 h after processing, −80 °C 30 days, freezing and thawing three times",stable
